In ChEMBL document CHEMBL4765351, “Photoeradication of bacteria with porphycenes: Substituent effects on the efficiency” (Eur J Med Chem, 2020):
Active and inactive are the calls of the source. The calls are words filed in the database; no cut-off is given here.

Key:
[1] = Induction of singlet oxygen generation in pluronic solution in deuterated water assessed as singlet oxygen quantum yield irradiated with 635 nanometer LED light at 300 mW by spectrometric method; assay type: functional
Enterococcus faecalis [2] = assay: Photodynamic antibacterial activity against Enterococcus faecalis 29212 assessed as bacterial eradication at 7 uM preincubated for 30 mins in dark condition followed by 72 J/cm2 LED light irradiation; assay type: functional
[3] = Induction of hydroxy radical generation in pluronic solution irradiated with 635 nanometer LED light at 6 mW by HPF fluorescence method
[4] = Induction of singlet oxygen generation in toluene solution assessed as singlet oxygen quantum yield irradiated with 369 nanometer LED light at 300 mW by spectrometric method; assay type: functional
[5] = Absorption property in pluronic/PBS solution assessed as diode array corresponding wavelength of photodynamic inactivation by measuring electronic absorption spectra by spectrophotometry; assay type: physicochemical; conditions: buffer
[6] = Induction of […] generation in pluronic solution irradiated with 369 nanometer LED light at 6 mW by HPF fluorescence method
Enterococcus faecalis [7] = assay: Photodynamic antibacterial activity against Enterococcus faecalis 29212 assessed as bacterial eradication by measuring log reduction at 7 uM preincubated for 30 mins in dark condition followed by 0.6 J/cm2.min LED light irradiation for 120 mins; assay type: functional
Enterococcus faecalis [8] = assay: Photodynamic antibacterial activity against Enterococcus faecalis 29212 assessed as bacterial eradication at 7 uM preincubated for 30 mins in dark condition followed by 30 J/cm2 LED light irradiation; assay type: functional, ATCC 29212; conditions: 0.5 h
HeLa = assay: Photodynamic anticancer activity against human HeLa cells; assay type: functional, cell-based
Enterococcus faecalis [9] = assay: Photodynamic antibacterial activity against Enterococcus faecalis 29212 assessed as bacterial eradication at 7 uM preincubated for 30 mins in dark condition followed by 0.6 J/cm2.min LED light irradiation for 50 mins; assay type: functional, ATCC 29212; conditions: time 80 min, 1.333 h

Row | Structure (SMILES) | Activity [1] | Activity (Enterococcus faecalis [2]; ATCC 29212) | Activity [3] | Activity [4] | Activity [5] | Activity [6] | Activity (Enterococcus faecalis [7]; ATCC 29212, time 150.0 min) | Activity (Enterococcus faecalis [8]) [%] | Activity (HeLa) | Activity (Enterococcus faecalis [9]) [%] | Activity (Enterococcus faecalis [2]; 0.5 h) [%] | Activity (Enterococcus faecalis [7]; time 150 min, 2.5 h)
1 | CC(C)(C)C1=Cc2nc1ccc1ccc([nH]1)c1nc(ccc3[nH]c2cc3C(C)(C)C)C=C1 | 0.22 | inactive | Active | 0.36 | Active | Active | inactive | – | – | – | – | –
2 | C1=Cc2nc1ccc1ccc([nH]1)c1nc(ccc3ccc2[nH]3)C=C1 | 0.28 | – | Active | 0.3 | Active | Active | – | 100 | Active | 100 | – | –
3 | COCCC1=Cc2nc1ccc1[nH]c(cc1CCOC)c1nc(ccc3[nH]c2cc3CCOC)C(CCOC)=C1 | 0.23 | – | Active | 0.32 | Active | Active | – | – | Active | – | 100 | 6
4 | CC(C)(C)C1=Cc2nc1ccc1[nH]c(cc1C(C)(C)C)c1nc(ccc3[nH]c2cc3C(C)(C)C)C(C(C)(C)C)=C1 | 0.21 | inactive | Active | 0.38 | Active | Active | inactive | – | inactive | – | – | –
5 | CC(C)(C)c1cc2[nH]c1ccc1nc(c3ccc(ccc4nc2C=C4)[nH]3)C=C1 | 0.23 | inactive | Active | 0.32 | Active | Active | – | – | – | – | – | 3
